# Data as given in patent US20240409536A1, “COMPOUNDS AND METHODS FOR MODULATING SPLICING” (REMIX THERAPEUTICS INC., priority 2021, published 2024).
# Assays:
# HTT mRNA [1] = assay: Gene panel canonical junction qPCR assay, HTT CJ mRNA decrease; format: cell-based, human; conditions: Homo sapiens, canonical junction qPCR, read-out: HTT IC50 (decrease in CJ mRNA levels)
# Method: (§1) Compounds described herein were used to modulate RNA transcript abundance in cells. The expression of a target mRNA was measured by detecting the formation of an exon-exon junction in the canonical transcript (CJ). A compound mediated exon-inclusion event was detected by observing an increase in formation of a new junction with an alternative exon (AJ). Real-time qPCR assays were used to detect these splicing switches and interrogate the potency of various compounds towards different target genes. A high-throughput real time quantitative PCR (RT-qPCR) assay was developed to measure these two isoforms of the mRNA (CJ and AJ) for exemplary genes, such as HTT, SMN2, and MYB, together with a control housekeeping gene, GAPDH or GUSB or PPIA, used for normalization. Briefly, the A673 or K562 cell line was treated with various compounds described herein (e.g., compounds of Formula (I), (I), or (III)). After treatment, the levels of the HTT, MYB, or SMN2 mRNA targets were determined from each sample of cell lysate by cDNA synthesis followed by qPCR.
# (§2) The data analysis was performed by first determining the ΔCt vs the housekeeper gene. This ΔCt was then normalized against the DMSO control (ΔΔCt) and converted to RQ (relative quantification) using the 2^(−ΔΔCt) equation. The RQ were then converted to a percentage response by arbitrarily setting an assay window of 3.5 and 4.0 ΔCt for HTT-CJ and MYB-CJ respectively and an assay window of 9 and 3 ΔCt for HTT-AJ and MYB-AJ in 96 well format (50,000 K562 cells/well and 15,000 A673 cells per well) and an assay window of 3 and 4 ΔCt for HTT-CJ and MYB-CJ respectively and an assay window of 5 and 3 ΔCt for HTT-AJ and MYB-AJ respectively in 384 well format (8,000 K562 cells/well example). […] The percentage response was then fitted to the 4 parametric logistic equation to evaluate the concentration dependence of compound treatment. The increase in AJ mRNA is reported as AC50 (compound concentration having […] in AJ increase) while the decrease in CJ mRNA levels is reported as IC50 (compound concentration having 50) response in CJ decrease).
# (§3) Additional studies were carried out for a larger panel of genes using the protocol provided above. The junction between flanking upstream and downstream exons was used to design canonical junction qPCR assays. At least one of the forward primer, reverse primer or the CY5-labeled 5′ nuclease probe (with 3′ quencher such as ZEN/Iowa Black FQ) was designed to overlap with the exon junction to capture the CJ mRNA transcript. BLAST was used to confirm the specificity of the probeset and parameters such as melting temperature, GC content, amplicon size, and primer dimer formation are considered during their design. Data for the decrease in CJ mRNA levels for four exemplary genes (HTT, SMN2, MYB, and Target C) analyzed in this panel are reported as IC50 (compound concentration having […] in CJ decrease).
# (§4) A summary of the results from the panel is illustrated in Tables 5A and 51B, wherein “A” represents an IC50 of less than 100 nM; “B” represents an IC50 of between 100 nM and 1 μM; and “C” represents an IC50 of between 1 μM and 10 μM; and “D” represents an IC50 of greater than 10 μM.
# HTT mRNA [2] = assay: Splicing RT-qPCR assay, HTT canonical (CJ) and alternative (AJ) junction mRNA; format: cell-based; conditions: Homo sapiens, A673 or K562 cells, 24 hours; for IC50: decrease in canonical junction mRNA; for AC50: increase in alternative junction mRNA
# Method: as §1
# (§5) • Cells-to-CT 1-step kit: ThermoFisher A25602, Cells-to-CT lysis reagent: ThermoFisher 4391851C, TaqMan™ Fast Virus 1-Step Master Mix: ThermoFisher 4444436 • GAPDH: VIC-PL, ThermoFisher 4326317E (Assay: Hs99999905_ml)—used for K562/suspension cell lines • GUSB: VIC-PL, ThermoFisher 4326320E (Assay: Hs99999908_ml)—used for K562/suspension cell lines • PPIA: VIC-PL, ThermoFisher 4326316E (Assay: Hs99999904_ml)—used for A673/adherent cell lines
# (§6) The A673 cell line was cultured in DMEM with 10% FBS. Cells were diluted with full growth media and plated in a 96-well plate (15,000 cells in 100 ul media per well). The plate was incubated at 37° C. with 5% CO2 for 24 hours to allow cells to adhere. An 11-point 3-fold serial dilution of the compounds was made in DMSO then diluted in media in an intermediate plate. Compounds were transferred from the intermediate plate to the cell plate with the top dose at a final concentration of 10 uM in the well. Final DMSO concentration was kept at or below 0.25%. The cell plate was returned to the incubator at 37° C. with 5% CO2 for an additional 24 hours.
# (§7) The K562 cell line was cultured in IMDM with 10% FBS. For K562, cells were diluted with full growth media and plated in either a 96-well plate (50,000 cells in 50 uL media per well) or a 384-well plate (8,000-40,000 cells in 45 uL media per well). An 11-point 3-fold serial dilution of the compounds were made in DMSO then diluted in media in an intermediate plate. Compound was transferred from the intermediate plate to the cell plate with the top dose at a final concentration of 10 uM in the well. Final DMSO concentration was kept at or below 0.25%. Final volume was 100 uL for 96-well plate and 50 uL for 384-well plate. The cell plate was then placed in an incubator at 37° C. with 5% CO2 for 24 hours.
# (§8) The cells were then gently washed with 50 uL-100 uL cold PBS before proceeding to addition of lysis buffer. 30 uL-50 uL of room temperature lysis buffer with DNAse I (and optionally RNAsin) was added to each well. Cells were shaken/mixed thoroughly at room temperature for 5-10 minutes for lysis to take place and then 3 uL-5 uL of room temperature stop solution was added and wells were shaken/mixed again. After 2-5 minutes, the cell lysate plate was transferred to ice for RT-qPCR reaction setup. The lysates could also be frozen at −80° C. for later use.
# (§9) In some cases, a direct lysis buffer was used. An appropriate volume of 3×lysis buffer (10 mM Tris, 150 mM NaCl, 1.5%-2.5% Igepal and 0.1-1 U/uL RNAsin, pH 7.4) was directly added to either K562 or A673 cells in media and mixed by pipetting 3 times. The plates were then incubated at room temperature with shaking/rocking for 20-50 minutes to allow for lysis to take place. After this time, the cell lysate plate was transferred to ice to set up for the RT-qPCR reactions. The lysates could also be frozen at −80° C. for later use. […]
# SMN2 mRNA = assay: Gene panel canonical junction qPCR assay, SMN2 CJ mRNA decrease; format: cell-based, human; conditions: Homo sapiens, canonical junction qPCR, read-out: SMN2 IC50 (decrease in CJ mRNA levels)
# Method: as §1, §2, §3, §4
# MYB mRNA [3] = assay: Gene panel canonical junction qPCR assay, MYB CJ mRNA decrease; format: cell-based, human; conditions: Homo sapiens, canonical junction qPCR, read-out: MYB IC50 (decrease in CJ mRNA levels)
# Method: as §1, §2, §3, §4
# Target C mRNA = assay: Gene panel canonical junction qPCR assay, Target C CJ mRNA decrease; format: cell-based; conditions: Homo sapiens, canonical junction qPCR, read-out: Target C IC50 (decrease in CJ mRNA levels)
# Method: as §1, §2, §3, §4
# MYB mRNA [4] = assay: Splicing RT-qPCR assay, MYB canonical (CJ) and alternative (AJ) junction mRNA; format: cell-based; conditions: Homo sapiens, A673 or K562 cells, 24 hours; for IC50: decrease in canonical junction mRNA; for AC50: increase in alternative junction mRNA
# Method: as §1, §5, §6, §7, §8, §9
# HiBiT-tagged MYB protein = assay: HiBiT protein abundance assay, MYB (K562 HiBiT knock-in cells); format: cell-based, human; conditions: 24 hours
# Method: (§10) Compounds described herein were used to screen for effects on quantitative protein abundance using a HiBit assay system (Promega). Quantitative protein abundance was determined by measuring the protein levels of HiBit-tagged protein targets expressed in cell culture via luminescence using the Nano-Glo HiBiT Lytic Detection System, which uses a split complementation assay format to reconstitute NanoBiT enzyme to generate a luminescent signal. A protein abundance assay was developed such that endogenous protein targets could be modified with the HiBiT peptide tag and their abundance could be assessed after compound treatment. Briefly, K562 cell lines containing a HiBiT-modification were treated with various compounds described herein (e.g., compounds of Formulas (I), (II), or (III)). After treatment for 24 hours, the protein abundance of a specific target was determined by measuring luminescence.
# (§11) • Promega Nano-Glo HiBiT Lytic Detection System (cat #N3030) • Corning 384-well TC-treated microplates (cat #3570) • Synthego Engineered Cells Knock-In Clones
# (§12) Cells were maintained in IMDM with 10% FBS. Before the assay, cells were diluted with […] growth media (IMDM+1% FBS media) and were seeded in a 384-well plate at a density of 10000 cells/well (for each cell line listed in Table 6). Each compound was prepared as a 10-point 3-fold serial dilution in DMSO with the top dose at a final concentration of 10 μM in the well. Unmodified K562 cells were added at the previously specified density with DMSO to serve as an assay baseline and positive control (PC) and DMSO only with the respective modified cell lines was added to the negative control (NC) columns. Final DMSO concentration was kept at or below 0.25%. Treated cell plates were placed in an incubator at 37° C. with 5% CO2 for 24 hours. After 24 hours, 25 μL of Complete HiBit Lytic reagent was added to each well at room temperature (e.g. one plate requiring 10 mL Lytic Buffer, 100 μL LgBiT Protein, 200 μL Lytic Substrate), shaken for 5 minutes at 600 RPM, then left to sit for 10 minutes for signal to stabilize before reading on a Spark Cyto plate reader (Tecan) with a 500 ms measurement time.
# (§13) To determine compound effects on protein abundance of each target in Table 6, the percent response for each respective cell line was calculated at each compound concentration as follows:
# (§14) For the normalized response at each concentration, a four-parameter logistical regression was fit to the data and the response was interpolated at the 50% value to determine a concentration for protein abundance at 50% (IC50) the untreated control.
# HiBiT-tagged HTT protein = assay: HiBiT protein abundance assay, HTT (K562 HiBiT knock-in cells); format: cell-based, human; conditions: 24 hours
# Method: as §10, §11, §12, §13, §14
# Target C = assay: HiBiT protein abundance assay, Target C (K562 HiBiT knock-in cells); format: cell-based, human; conditions: 24 hours
# Method: as §11, §12, §13, §14
Compound,IC50 (HTT mRNA [1]) [nM],IC50 (HTT mRNA [2]) [nM],AC50 (HTT mRNA [2]) [nM],IC50 (SMN2 mRNA) [nM],IC50 (MYB mRNA [3]) [nM],IC50 (Target C mRNA) [nM],IC50 (MYB mRNA [4]) [nM],AC50 (MYB mRNA [4]) [nM],IC50 (HiBiT-tagged MYB protein) [nM],IC50 (HiBiT-tagged HTT protein) [nM],IC50 (Target C) [nM]
Cc1cn2cc(NC(=O)c3ccc(N4CCNCC4)c4ccnnc34)nc2c(C)n1 [Compound 121],> 10000,> 10000,> 10000,100 to 1000,100 to 1000,> 10000,100 to 1000,1000 to 10000,–,–,–
Cc1cn2cc(NC(=O)c3ccc(N4CC5(CN(C)C5)C4)c4ccnnc34)cc(F)c2n1 [Compound 132],1000 to 10000,1000 to 10000,1000 to 10000,< 100,100 to 1000,> 10000,100 to 1000,100 to 1000,–,–,–
Cc1cn2cc(NC(=O)c3ccc(N4CCN[C@@H](C)C4)c4ccnnc34)cc(F)c2n1 [Compound 147],1000 to 10000,1000 to 10000,1000 to 10000,< 100,< 100,1000 to 10000,< 100,< 100,–,–,–
CNC1[C@@H]2C[C@H]1N(c1ccc(C(=O)Nc3cc(F)c4nc(C)cn4c3)c3nnccc13)C2 (stereo partly shown) [Compound 148],1000 to 10000,1000 to 10000,1000 to 10000,1000 to 10000,1000 to 10000,1000 to 10000,1000 to 10000,1000 to 10000,–,–,–
"COCCOc1ncc2c(N3CCNCC3)ccc(C(=O)Nc3cc(F)c4nc(C)cn4c3)c2n1 [Compound 180, N-{8-fluoro-2-methylimidazo[1,2-a]pyridin-6-yl}-2-(2-methoxyethoxy)-5-(piperazin-1-yl)quinazoline-8-carboxamide; trifluoroacetic acid]",–,–,–,–,–,–,–,–,> 10000,> 10000,> 10000
"CCc1cc2c(N3CCNCC3)ccc(C(=O)Nc3cc(F)c4nc(C)cn4c3)c2nn1 [Compound 185, 3-ethyl-N-{8-fluoro-2-methylimidazo[1,2-a]pyridin-6-yl}-5-(piperazin-1-yl)cinnoline-8-carboxamide]",> 10000,> 10000,> 10000,< 100,100 to 1000,> 10000,100 to 1000,100 to 1000,–,–,–
"Cc1cn2cc(NC(=O)c3ccc(N4C[C@@H](C)N[C@@H](C(C)C)C4)c4nccnc34)cc(F)c2n1 [Compound 264, N-{8-fluoro-2-methylimidazo[1,2-a]pyridin-6-yl}-8-[(3S,5R)-3-isopropyl-5-methylpiperazin-1-yl]quinoxaline-5-carboxamide 2,2,2-trifluoroacetate]",> 10000,> 10000,> 10000,< 100,1000 to 10000,> 10000,1000 to 10000,100 to 1000,–,–,–
Cc1cn2cc(NC(=O)c3c(F)cc(N4CCNCC4)c4ccnnc34)cc(F)c2n1 [Compound 350],> 10000,> 10000,> 10000,100 to 1000,1000 to 10000,> 10000,1000 to 10000,1000 to 10000,–,–,–
COc1ncc2c(N3C[C@H](C)N[C@@H](C)C3)ccc(C(=O)Nc3cc(F)c4nc(C)cn4c3)c2n1 [Compound 386],100 to 1000,100 to 1000,100 to 1000,< 100,< 100,100 to 1000,< 100,< 100,–,–,–
